The values below are quoted from earlier work in patent publication US20060067952A1, “Low oil emulsion compositions for delivering taxoids and other insoluble drugs” (SD Pharmaceuticals, Inc., priority 2004, published 2006).

Like-named read-outs stand apart in the source and are kept apart here.

For this data set the following is noted: 25° C.

Consider `CC(=O)Oc1ccccc1C(=O)O` [aspirin], for which the “Volume of solvent required to dissolve 1 gram of the drug” value (H2O) is 300 mL and the “Volume of solvent required to dissolve 1 gram of the drug” value (ethanol) is 5 mL.
